Assay: molar heat capacity at constant pressure
Details: 101.33 kPa, Crystal, Small (less than 1 g) adiabatic calorimetry

N[C@@H](Cc1c[nH]c2ccccc12)C(=O)O [L-tryptophan]
Details | molar heat capacity at constant pressure [J/K/mol]
5 K | 0.6568
7.14 K | 1.912
7.31 K | 2.029
7.49 K | 2.253
7.66 K | 2.22
7.83 K | 2.345
8.01 K | 2.511
8.17 K | 2.719
8.33 K | 2.893
8.49 K | 3.026
8.64 K | 3.118
8.8 K | 3.193
8.95 K | 3.5
9.1 K | 3.492
9.25 K | 3.783
9.39 K | 4.024
9.54 K | 4.041
9.69 K | 4.141
9.83 K | 4.34
9.98 K | 4.506
10 K | 4.49
10.17 K | 4.656
10.41 K | 4.889
10.66 K | 5.08
10.9 K | 5.363
11.14 K | 5.712
11.39 K | 5.978
11.63 K | 6.153
11.88 K | 6.419
12.12 K | 6.768
12.37 K | 7.009
12.62 K | 7.325
12.87 K | 7.591
13.12 K | 7.874
13.37 K | 8.132
13.62 K | 8.481
13.87 K | 8.697
14.12 K | 8.988
14.37 K | 9.37
14.63 K | 9.612
14.89 K | 9.994
15 K | 10.06
15.14 K | 10.24
15.4 K | 10.54
15.65 K | 10.85
15.91 K | 11.26
16.17 K | 11.59
16.42 K | 11.93
16.68 K | 12.31
16.94 K | 12.6
17.2 K | 12.88
17.46 K | 13.23
17.72 K | 13.64
17.98 K | 13.93
18.24 K | 14.28
18.5 K | 14.56
18.77 K | 14.98
19.04 K | 15.27
19.3 K | 15.67
19.56 K | 16.11
19.82 K | 16.35
20 K | 16.55
20.09 K | 16.75
20.64 K | 17.32
21.4 K | 18.33
22.16 K | 19.27
22.93 K | 20.25
23.7 K | 21.21
24.47 K | 22.27
25 K | 22.95
25.24 K | 23.36
26.01 K | 24.35
26.79 K | 25.26
27.56 K | 26.17
28.34 K | 27.19
29.12 K | 28.15
29.9 K | 29.13
30 K | 29.35
30.69 K | 30.2
31.47 K | 31.22
32.25 K | 32.16
33.04 K | 33.14
33.83 K | 34.04
34.62 K | 34.9
35 K | 35.34
35.41 K | 35.81
36.19 K | 36.73
36.98 K | 37.56
37.77 K | 38.4
38.56 K | 39.29
39.36 K | 40.19
40 K | 40.82
40.15 K | 40.92
40.94 K | 41.77
41.73 K | 42.6
42.53 K | 43.43
43.32 K | 44.32
44.11 K | 45.14
44.91 K | 45.95
45 K | 45.9
45.71 K | 46.69
46.51 K | 47.37
47.31 K | 48.09
48.11 K | 48.71
48.9 K | 49.39
49.7 K | 50.03
50 K | 50.55
50.5 K | 50.81
51.3 K | 51.51
52.1 K | 52.37
52.9 K | 53.35
53.7 K | 54.34
54.5 K | 55.43
55.3 K | 55.65
56.1 K | 56.39
56.9 K | 57.23
57.7 K | 57.95
58.51 K | 58.68
59.31 K | 59.42
60 K | 60.03
60.12 K | 60.15
60.92 K | 60.88
61.73 K | 61.6
62.52 K | 62.33
63.32 K | 63.58
64.13 K | 64.21
64.93 K | 64.88

From the NIST ThermoML archive (doi:10.1016/j.jct.2016.09.041)
